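How tested: cells in 96-well plates exposed to compound for 48 hours at five concentrations. At the GI50, growth is halved. TGI denotes the concentration required for complete inhibition of growth.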
Legend:
Experiment in all cases: NCI anticancer screen, dose series, 48 h
[1] = system: HOP-62 NSCLC
[2] = system: BT-549 breast
[3] = system: MDA-MB-435
[4] = system: M14 melanoma
[5] = system: MDA-N
[6] = system: A498 renal
[7] = system: HCT-116 colon
[8] = system: T-47D breast
[9] = system: HL-60(TB) leukemia
[10] = system: HS 578T breast
[11] = system: LOX IMVI melanoma
[12] = system: K-562 leukemia
[13] = system: OVCAR-8 ovarian

| SMILES | TGI [1] [µM] | TGI [2] [µM] | TGI [3] [µM] | TGI [4] [µM] | TGI [5] [µM] | TGI [6] [µM] | TGI [7] [µM] | TGI [8] [µM] | TGI [9] [µM] | TGI [10] [µM] | TGI [11] [µM] | TGI [12] [µM] | TGI [13] [µM] | GI50 [8] [µM] | GI50 [9] [µM] | GI50 [3] [µM] | GI50 [10] [µM] | GI50 [11] [µM] | GI50 [12] [µM] | GI50 [13] [µM] |
| --- | --- | --- | --- | --- | --- | --- | --- | --- | --- | --- | --- | --- | --- | --- | --- | --- | --- | --- | --- | --- |
| COc1ccc(CC(CO)NC(=O)OCc2ccccc2)cc1Oc1ccc(CC(CO)NC(=O)OCc2ccccc2)cc1 (stereo not drawn) | 31.8 | 32.3 | > 100 | 23.3 | 54.1 | 34.9 | 32.3 | – | – | – | – | – | – | – | – | – | – | – | – | – |
| CC(=O)OC(C)c1cc2c(s1)C(=O)c1sccc1C2=O (stereo not drawn) | 2.65 | 1.68 | – | 0.389 | 0.0338 | 4.59 | 2.48 | 6.2 | > 100 | 7.36 | > 100 | > 100 | 4.66 | – | – | – | – | – | – | – |
| Oc1ccc(-c2nnc3sc(-c4ccc(F)cc4)nn23)cc1 | – | – | > 100 | – | – | – | – | > 100 | > 100 | 40.2 | > 100 | > 100 | > 100 | 21 | > 100 | > 100 | 16.1 | 34.5 | > 100 | 48.3 |
